Experimental data: PubChem BioAssay AID1963837 (Molecular Pharmacology Branch, DTP, NCI, 2024)

Tested on: 843126-344-R-J1-PDC complex spheroid viability
Assay: Anticancer human tumor 843126-344-R-J1-PDC patient-derived melanoma cell line growth inhibition [POLQ]
Settings: for IC50: curve of first compound; for viability, T/C: stronger effect = lower value
In short: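 PDC + HUVEC + MSC complex spheroids; POLQ inhibitors ± partner drugs; top conc. at/near clinical Cmax, else 10 microM (SN-38 1 microM), half-log dilutions; 37 degrees C, 5% CO2.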
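Throughout, for viability, T/C: spheroids exposed to drugs for seven days before readout.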

**Q.** With `CC(C)n1c(=O)n(C)c2cnc3cc(F)c(-c4ccc(OCCCN5CCCCC5)nc4)cc3c21` + Cc1cccc(N(C)C(=O)C2C(O)CCN2c2nc(C)cc(C(F)(F)F)c2C#N)c1 as the compound, how does the IC50 (second compound 0.0316 µM) read?
**A.** > 10 µM

**Q.** And the IC50 (second compound 0.1 µM)?
**A.** > 10 µM

**Q.** And the IC50 (second compound 0.316 µM)?
**A.** > 10 µM

**Q.** What about the IC50 (second compound 1 µM) of the same compound?
**A.** > 10 µM

**Q.** What about the IC50 (second compound 3.16 µM) of the same compound?
**A.** > 10 µM

**Q.** What about the IC50 (second compound 10 µM) of the same compound?
**A.** > 10 µM

**Q.** And the viability, T/C (second compound 0.0316 µM, first compound 0.0316 µM)?
**A.** 100%

**Q.** And the viability, T/C (second compound 0.0316 µM, first compound 0.1 µM)?
**A.** 87.7%

**Q.** What about the viability, T/C (second compound 0.0316 µM, first compound 0.316 µM) of the same compound?
**A.** 97.2%

**Q.** And the viability, T/C (second compound 0.0316 µM, first compound 1 µM)?
**A.** 78.7%

**Q.** And the viability, T/C (second compound 0.0316 µM, first compound 3.16 µM)?
**A.** 93%

**Q.** What about the viability, T/C (second compound 0.0316 µM, first compound 10 µM) of the same compound?
**A.** 60.5%

**Q.** And the viability, T/C (second compound 0.1 µM, first compound 0.0316 µM)?
**A.** 90.1%

**Q.** What about the viability, T/C (second compound 0.1 µM, first compound 0.1 µM) of the same compound?
**A.** 104%

**Q.** And the viability, T/C (second compound 0.1 µM, first compound 0.316 µM)?
**A.** 72.7%

**Q.** And the viability, T/C (second compound 0.1 µM, first compound 1 µM)?
**A.** 83.1%

**Q.** And the viability, T/C (second compound 0.1 µM, first compound 3.16 µM)?
**A.** 78.1%

**Q.** What about the viability, T/C (second compound 0.1 µM, first compound 10 µM) of the same compound?
**A.** 67.1%

**Q.** And the viability, T/C (second compound 0.316 µM, first compound 0.0316 µM)?
**A.** 92%

**Q.** And the viability, T/C (second compound 0.316 µM, first compound 0.1 µM)?
**A.** 96.9%

**Q.** What about the viability, T/C (second compound 0.316 µM, first compound 0.316 µM) of the same compound?
**A.** 88.7%

**Q.** What about the viability, T/C (second compound 0.316 µM, first compound 1 µM) of the same compound?
**A.** 89.8%

**Q.** And the viability, T/C (second compound 0.316 µM, first compound 3.16 µM)?
**A.** 87.2%

**Q.** And the viability, T/C (second compound 0.316 µM, first compound 10 µM)?
**A.** 55.1%

**Q.** What about the viability, T/C (second compound 1 µM, first compound 0.0316 µM) of the same compound?
**A.** 98.3%

**Q.** And the viability, T/C (second compound 1 µM, first compound 0.1 µM)?
**A.** 78%

**Q.** And the viability, T/C (second compound 1 µM, first compound 0.316 µM)?
**A.** 86.7%

**Q.** And the viability, T/C (second compound 1 µM, first compound 1 µM)?
**A.** 78.5%

**Q.** And the viability, T/C (second compound 1 µM, first compound 3.16 µM)?
**A.** 81%

**Q.** And the viability, T/C (second compound 1 µM, first compound 10 µM)?
**A.** 64.3%

**Q.** And the viability, T/C (second compound 3.16 µM, first compound 0.0316 µM)?
**A.** 94.8%

**Q.** And the viability, T/C (second compound 3.16 µM, first compound 0.1 µM)?
**A.** 84.5%

**Q.** What about the viability, T/C (second compound 3.16 µM, first compound 0.316 µM) of the same compound?
**A.** 106%

**Q.** And the viability, T/C (second compound 3.16 µM, first compound 1 µM)?
**A.** 99.1%

**Q.** What about the viability, T/C (second compound 3.16 µM, first compound 3.16 µM) of the same compound?
**A.** 91.9%

**Q.** What about the viability, T/C (second compound 3.16 µM, first compound 10 µM) of the same compound?
**A.** 73.1%

**Q.** And the viability, T/C (second compound 10 µM, first compound 0.0316 µM)?
**A.** 93.4%

**Q.** What about the viability, T/C (second compound 10 µM, first compound 0.1 µM) of the same compound?
**A.** 90.2%

**Q.** What about the viability, T/C (second compound 10 µM, first compound 0.316 µM) of the same compound?
**A.** 89.1%

**Q.** What about the viability, T/C (second compound 10 µM, first compound 1 µM) of the same compound?
**A.** 77.9%

**Q.** And the viability, T/C (second compound 10 µM, first compound 3.16 µM)?
**A.** 81.9%

**Q.** What about the viability, T/C (second compound 10 µM, first compound 10 µM) of the same compound?
**A.** 61.2%
